Test results as given in publication PMC8202330, “Phosphorylation of the LIR Domain of SCOC Modulates ATG8 Binding Affinity and Specificity” (Journal of Molecular Biology, 2021).
Read-outs that look alike come from different tables or passages of the source.

What was measured:
Assay type in all cases: binding
[1] = molecular target: T1, LC3A (Homo sapiens, UniProt Q9H492); assay: Bio-layer interferometry (BLI) affinity of SCOC LIR peptides for LC3A
T1 construct: GST (followed by 3C protease cleavage site) (N); made in house
Protocol: (§1) Bio-layer interferometry (BLI) is an optical analytical technique for measuring kinetics of interactions in real-time. The biosensor tip surface immobilized with a ligand is incubated with an analyte in solution, resulting in an increase in optical thickness at the biosensor tip and a wavelength shift, which is a direct measure of the change in thickness. Bio-layer interferometry analyses of ATG8s binding to immobilized biotinylated LIR peptides were performed using an Octet Red 96 (ForteBio). […] Ligands-loaded SA biosensors were then incubated with different concentrations of ATG8. All binding experiments were performed in solid-black 96-well plates containing 200 μl of solution (25 mM Tris pH 7.5, 150 mM NaCl, 0.5 mM TCEP, 0.1% Tween20, 1 mg/ml BSA) in each well at 25 °C with an agitation speed of 1000 rpm. Each measurement was repeated 2 to 3 times. Dissociation constants for LIR-ATG8 interactions were determined from plotting the increase in BLI response as a function of the protein concentration and fitting using non-linear regression of ForteBio 7.1 data analysis and GraphPad Prism 7 softwares.
(§2) The following peptides were synthesized using FMOC solid phase peptide chemistry by the Francis CRICK Institute peptide chemistry science technology platform: […]

[2] = molecular target: T2, LC3B (Homo sapiens, UniProt Q9GZQ8); assay: Bio-layer interferometry (BLI) affinity of SCOC LIR peptides for LC3B
T2 construct: GST (followed by 3C protease cleavage site) (N); made in house
Protocol: as §1, §2

[3] = molecular target: T3, LC3C (Homo sapiens, UniProt Q9BXW4); assay: Bio-layer interferometry (BLI) affinity of SCOC LIR peptides for LC3C
T3 construct: GST (followed by 3C protease cleavage site) (N); made in house
T3 sequence (Q9BXW4 whole entry): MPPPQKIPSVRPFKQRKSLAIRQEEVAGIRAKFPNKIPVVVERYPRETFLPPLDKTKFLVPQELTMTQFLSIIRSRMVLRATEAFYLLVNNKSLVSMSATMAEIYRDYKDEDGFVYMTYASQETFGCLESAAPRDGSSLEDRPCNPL
Protocol: as §1, §2

[4] = molecular target: T4, GABARAP (Homo sapiens, UniProt O95166); assay: Bio-layer interferometry (BLI) affinity of SCOC LIR peptides for GABARAP
T4 construct: fused with a Gly-Ser linker to full-length GABARAP (GST-GABARAP (pAL)); GST (followed by 3C protease cleavage site) (N); made in house
T4 sequence (O95166 whole entry, the tested form may be a part): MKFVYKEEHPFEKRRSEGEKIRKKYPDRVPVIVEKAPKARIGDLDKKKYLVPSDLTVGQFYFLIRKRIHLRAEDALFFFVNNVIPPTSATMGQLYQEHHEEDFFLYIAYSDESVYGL
Protocol: as §1, §2

[5] = molecular target: T5, GABARAPL1 (Homo sapiens, UniProt Q9H0R8); assay: Bio-layer interferometry (BLI) affinity of SCOC LIR peptides for GABARAPL1
T5 construct: GST-GABARAPL1 full-length (pAL); GST (followed by 3C protease cleavage site) (N); made in house
T5 sequence (Q9H0R8 whole entry): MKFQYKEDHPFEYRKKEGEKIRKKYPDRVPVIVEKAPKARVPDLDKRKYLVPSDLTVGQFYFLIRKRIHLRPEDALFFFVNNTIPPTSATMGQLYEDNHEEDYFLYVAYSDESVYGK
Protocol: as §1, §2

[6] = molecular target: T6, GABARAPL2 (Homo sapiens, UniProt P60520); assay: Bio-layer interferometry (BLI) affinity of SCOC LIR peptides for GABARAPL2
T6 construct: GST (followed by 3C protease cleavage site) (N); made in house
T6 sequence (P60520 whole entry): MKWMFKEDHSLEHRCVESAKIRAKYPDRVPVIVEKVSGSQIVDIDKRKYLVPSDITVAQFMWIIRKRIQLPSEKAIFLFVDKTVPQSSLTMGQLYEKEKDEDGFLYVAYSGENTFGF
Protocol: as §1, §2

[7] = BLI, wild-type and phosphorylated SCOC LIR peptides, Tris pH 7.5, 25 °C, average ± standard error of fit, n = 2–3, Figure 4B, read-out: Kd LC3A
[8] = BLI, wild-type and phosphorylated SCOC LIR peptides, Tris pH 7.5, 25 °C, average ± standard error of fit, n = 2–3, Figure 4B, read-out: Kd LC3B
[9] = BLI, wild-type and phosphorylated SCOC LIR peptides, Tris pH 7.5, 25 °C, average ± standard error of fit, n = 2–3, Figure 4B, read-out: Kd LC3C
[10] = BLI, wild-type and phosphorylated SCOC LIR peptides, Tris pH 7.5, 25 °C, average ± standard error of fit, n = 2–3, Figure 4B, read-out: Kd GAB
[11] = BLI, wild-type and phosphorylated SCOC LIR peptides, Tris pH 7.5, 25 °C, average ± standard error of fit, n = 2–3, Figure 4B, read-out: Kd GAB-L1
[12] = BLI, wild-type and phosphorylated SCOC LIR peptides, Tris pH 7.5, 25 °C, average ± standard error of fit, n = 2–3, Figure 4B, read-out: Kd GAB-L2
[13] = BLI, wild-type, truncated and phosphorylated SCOC LIR peptides, Tris pH 7.5, 25 °C, average ± standard error of fit, n = 2, Figure 6A, read-out: Kd LC3A
[14] = BLI, wild-type, truncated and phosphorylated SCOC LIR peptides, Tris pH 7.5, 25 °C, average ± standard error of fit, n = 2, Figure 6A, read-out: Kd LC3C
[15] = BLI, wild-type, truncated and phosphorylated SCOC LIR peptides, Tris pH 7.5, 25 °C, average ± standard error of fit, n = 2, Figure 6A, read-out: Kd GAB
[16] = BLI, wild-type, truncated and phosphorylated SCOC LIR peptides, Tris pH 7.5, 25 °C, average ± standard error of fit, n = 2, Figure 6A, read-out: Kd GAB-L1

For `CC[C@H](C)[C@H](NC(=O)[C@H](CC(=O)O)NC(=O)[C@H](CC(=O)O)NC(=O)[C@H](C)NC(=O)[C@H](CC(C)C)NC(=O)[C@H](COP(=O)(O)O)NC(=O)[C@@H](NC(=O)[C@H](CC(N)=O)NC(=O)[C@@H](NC(=O)[C@H](Cc1ccccc1)NC(=O)[C@@H](NC(=O)[C@H](COP(=O)(O)O)NC(=O)[C@H](CC(=O)O)NC(=O)[C@H](CCC(=O)O)NC(=O)[C@H](CCC(=O)O)NC(=O)[C@H](CCC(=O)O)NC(=O)[C@H](CCC(=O)O)NC(=O)[C@@H](N)CCCCN)[C@@H](C)O)[C@@H](C)O)[C@@H](C)CC)C(=O)N[C@@H](CC(=O)O)C(=O)N[C@@H](Cc1c[nH]cn1)C(N)=O` [pS12, pS18], the Kd [1, 7] was 1.6 ± 0.2 µM, the Kd [2, 8] was 7.8 ± 0.9 µM and the Kd [3, 9] was 0.4 ± 0.04 µM. For the same compound, the Kd [4, 10] was 1 ± 0.1 µM, the Kd [5, 11] was 0.4 ± 0.03 µM and the Kd [6, 12] was 10.4 ± 0.5 µM.
`CC[C@H](C)[C@H](NC(=O)[C@H](CC(N)=O)NC(=O)[C@@H](NC(=O)[C@H](Cc1ccccc1)NC(=O)[C@@H](NC(=O)[C@H](CO)NC(=O)[C@H](CC(=O)O)NC(=O)[C@H](CCC(=O)O)NC(=O)[C@H](CCC(=O)O)NC(=O)[C@H](CCC(=O)O)NC(=O)[C@H](CCC(=O)O)NC(=O)[C@@H](N)CCCCN)[C@@H](C)O)[C@@H](C)O)C(=O)N[C@@H](CO)C(=O)N[C@@H](CC(C)C)C(=O)N[C@@H](C)C(N)=O` [SCOC aa 6-20] was tested, and the Kd [1, 13] was 209 ± 25 µM, the Kd [3, 14] was 21.3 ± 2.4 µM and the Kd [4, 15] was 8.5 ± 0.7 µM. The Kd [5, 16] was 6.8 ± 0.6 µM.
In the case of `CC[C@H](C)[C@H](NC(=O)[C@H](CC(=O)O)NC(=O)[C@H](CC(=O)O)NC(=O)[C@H](C)NC(=O)[C@H](CC(C)C)NC(=O)[C@H](CO)NC(=O)[C@@H](NC(=O)[C@H](CC(N)=O)NC(=O)[C@@H](NC(=O)[C@H](Cc1ccccc1)NC(=O)[C@@H](NC(=O)[C@H](CO)NC(=O)[C@H](CC(=O)O)NC(=O)[C@H](CCC(=O)O)NC(=O)[C@H](CCC(=O)O)NC(=O)[C@H](CCC(=O)O)NC(=O)[C@H](CCC(=O)O)NC(=O)[C@@H](N)CCCCN)[C@@H](C)O)[C@@H](C)O)[C@@H](C)CC)C(=O)N[C@@H](CC(=O)O)C(=O)N[C@@H](Cc1c[nH]cn1)C(N)=O` [SCOC WT], the Kd ([4]; BLI, biotinylated LIR peptide on streptavidin biosensor, Tris pH 7.5, 25 °C, average ± standard error of fit, n = 2, Figure 1E, Suppl. Figure 2A, read-out: Kd GABARAP) is reported as 3.6 µM.
`CC[C@H](C)[C@H](NC(=O)[C@H](CC(=O)O)NC(=O)[C@H](CC(=O)O)NC(=O)[C@H](C)NC(=O)[C@H](CC(C)C)NC(=O)[C@H](CO)NC(=O)[C@@H](NC(=O)[C@H](CC(N)=O)NC(=O)[C@@H](NC(=O)[C@H](Cc1ccccc1)NC(=O)[C@@H](NC(=O)[C@H](COP(=O)(O)O)NC(=O)[C@H](CC(=O)O)NC(=O)[C@H](CCC(=O)O)NC(=O)[C@H](CCC(=O)O)NC(=O)[C@H](CCC(=O)O)NC(=O)[C@H](CCC(=O)O)NC(=O)[C@@H](N)CCCCN)[C@@H](C)O)[C@@H](C)OP(=O)(O)O)[C@@H](C)CC)C(=O)N[C@@H](CC(=O)O)C(=O)N[C@@H](Cc1c[nH]cn1)C(N)=O` [pS12, pT15] was tested, and the Kd [1] was 0.7 ± 0.08 µM, the Kd [2] was 4.8 ± 0.6 µM and the Kd [3] was 0.41 ± 0.04 µM. The Kd [4] was 1 ± 0.1 µM, the Kd [5] was 0.37 ± 0.04 µM and the Kd [6] was 8.3 ± 0.4 µM.
For `CC[C@H](C)[C@H](NC(=O)[C@H](CC(=O)O)NC(=O)[C@H](CC(=O)O)NC(=O)[C@H](C)NC(=O)[C@H](CC(C)C)NC(=O)[C@H](CO)NC(=O)[C@@H](NC(=O)[C@H](CC(N)=O)NC(=O)[C@@H](NC(=O)[C@H](Cc1ccccc1)NC(=O)[C@@H](NC(=O)[C@H](CO)NC(=O)[C@H](CC(=O)O)NC(=O)[C@H](CCC(=O)O)NC(=O)[C@H](CCC(=O)O)NC(=O)[C@H](CCC(=O)O)NC(=O)[C@H](CCC(=O)O)NC(=O)[C@@H](N)CCCCN)[C@@H](C)OP(=O)(O)O)[C@@H](C)O)[C@@H](C)CC)C(=O)N[C@@H](CC(=O)O)C(=O)N[C@@H](Cc1c[nH]cn1)C(N)=O` [pT13], the Kd [1] was 10.1 ± 1.5 µM, the Kd [2] was 193 ± 29 µM and the Kd [3] was 5 ± 0.5 µM. The Kd [4] was 3.1 ± 0.3 µM, the Kd [5] was 2 ± 0.2 µM and the Kd [6] was 33.8 ± 2.6 µM.
For `CC[C@H](C)[C@H](NC(=O)[C@H](CC(=O)O)NC(=O)[C@H](CC(=O)O)NC(=O)[C@H](C)NC(=O)[C@H](CC(C)C)NC(=O)[C@H](COP(=O)(O)O)NC(=O)[C@@H](NC(=O)[C@H](CC(N)=O)NC(=O)[C@@H](NC(=O)[C@H](Cc1ccccc1)NC(=O)[C@@H](NC(=O)[C@H](CO)NC(=O)[C@H](CC(=O)O)NC(=O)[C@H](CCC(=O)O)NC(=O)[C@H](CCC(=O)O)NC(=O)[C@H](CCC(=O)O)NC(=O)[C@H](CCC(=O)O)NC(=O)[C@@H](N)CCCCN)[C@@H](C)O)[C@@H](C)O)[C@@H](C)CC)C(=O)N[C@@H](CC(=O)O)C(=O)N[C@@H](Cc1c[nH]cn1)C(N)=O` [pS18], the Kd [1, 7] was 4.9 ± 0.4 µM, the Kd [2, 8] was 48.9 ± 8.6 µM and the Kd [3, 9] was 1.9 ± 0.2 µM. The Kd [4, 10] was 3.9 ± 0.3 µM, the Kd [5, 11] was 2.1 ± 0.1 µM and the Kd [6, 12] was 26 ± 2.4 µM.
In the case of `CC[C@H](C)[C@H](NC(=O)[C@H](CC(N)=O)NC(=O)[C@@H](NC(=O)[C@H](Cc1ccccc1)NC(=O)[C@@H](NC(=O)[C@H](CO)NC(=O)[C@H](CC(=O)O)NC(=O)[C@H](CCC(=O)O)NC(=O)[C@H](CCC(=O)O)NC(=O)[C@H](CCC(=O)O)NC(=O)[C@H](CCC(=O)O)NC(=O)[C@@H](N)CCCCN)[C@@H](C)O)[C@@H](C)O)C(=O)N[C@@H](COP(=O)(O)O)C(=O)N[C@@H](CC(C)C)C(=O)N[C@@H](C)C(N)=O` [SCOC aa 6-20/pS18], the Kd [1, 13] is reported as 33.3 ± 4.8 µM, the Kd [3, 14] is reported as 5 ± 0.5 µM and the Kd [4, 15] is reported as 7.5 ± 0.8 µM. The Kd [5, 16] was 3.8 ± 0.3 µM.
In the case of `CC[C@H](C)[C@H](NC(=O)[C@H](CC(=O)O)NC(=O)[C@H](CC(=O)O)NC(=O)[C@H](C)NC(=O)[C@H](CC(C)C)NC(=O)[C@H](CO)NC(=O)[C@@H](NC(=O)[C@H](CC(N)=O)NC(=O)[C@@H](NC(=O)[C@H](Cc1ccccc1)NC(=O)[C@@H](NC(=O)[C@H](CO)NC(=O)[C@H](CC(=O)O)NC(=O)[C@H](CCC(=O)O)NC(=O)[C@H](CCC(=O)O)NC(=O)[C@H](CCC(=O)O)NC(=O)[C@H](CCC(=O)O)NC(=O)[C@@H](N)CCCCN)[C@@H](C)O)[C@@H](C)OP(=O)(O)O)[C@@H](C)CC)C(=O)N[C@@H](CC(=O)O)C(=O)N[C@@H](Cc1c[nH]cn1)C(N)=O` [pT15], the Kd [1] is reported as 3.7 ± 0.5 µM, the Kd [2] is reported as 37.4 ± 4.5 µM and the Kd [3] is reported as 3.6 ± 0.4 µM. It also gave a Kd [4] of 3 ± 0.3 µM, a Kd [5] of 1.2 ± 0.1 µM and a Kd [6] of 44 ± 4.5 µM.
With `CC[C@H](C)[C@H](NC(=O)[C@H](CC(=O)O)NC(=O)[C@H](CC(=O)O)NC(=O)[C@H](C)NC(=O)[C@H](CC(C)C)NC(=O)[C@H](CO)NC(=O)[C@@H](NC(=O)[C@H](CC(N)=O)NC(=O)[C@@H](NC(=O)[C@H](Cc1ccccc1)NC(=O)[C@@H](NC(=O)[C@H](COP(=O)(O)O)NC(=O)[C@H](CC(=O)O)NC(=O)[C@H](CCC(=O)O)NC(=O)[C@H](CCC(=O)O)NC(=O)[C@H](CCC(=O)O)NC(=O)[C@H](CCC(=O)O)NC(=O)[C@@H](N)CCCCN)[C@@H](C)O)[C@@H](C)O)[C@@H](C)CC)C(=O)N[C@@H](CC(=O)O)C(=O)N[C@@H](Cc1c[nH]cn1)C(N)=O` [pS12] the Kd [1, 7] was 3 ± 0.4 µM, the Kd [2, 8] was 41.6 ± 4.6 µM and the Kd [3, 9] was 1.4 ± 0.1 µM. The Kd [4, 10] was 1.5 ± 0.1 µM, the Kd [5, 11] was 0.88 ± 0.08 µM and the Kd [6, 12] was 12.8 ± 1.3 µM.
